The values that follow come from patent US9567345B2, “Pharmaceutically active pyrazolo-triazine derivatives” (LEAD DISCOVERY CENTER GMBH, priority 2012, dated 2017).

Assay type in all cases: biochemical
The target in one test is CDK9/Cyclin T1 (Homo sapiens, UniProt P50750). Nature of the test: CDK9 Enzymatic Activity Assay (Lance Kinase Activity Assay, FRET). To be noted: Table 5B, class symbols per IC50 [nM] ranges of b581; read-out: CDK9: Selectivity of CDK7 inhibition over CDK9 inhibition. Summed up: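 CDK9/cyclin T1 phosphorylation of a ULight-MBP peptide was run for 1 h at room temperature in pH 7.5 HEPES buffer with MgCl2, EGTA, DTT and Tween-20. It was followed by 1 h with Eu-anti-phospho-MBP antibody (4 nM) in EDTA detection buffer. TR-FRET loss gave IC50 from 8-point, 1:3 sigmoidal dose-response curves.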

The next test concerns the target T1, CDK2/CycA (Homo sapiens, UniProt P24941).
T1 construct: purchased Proqinase
The test can be described thus: CDK2 Enzymatic Activity Assay (Lance Kinase Activity Assay, FRET). As to conditions: Table 5B, class symbols per IC50 [nM] ranges of b581; read-out: CDK2: Selectivity of CDK7 inhibition over CDK2 inhibition. Summed up: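 Compounds in an 8-step, 1:3 dilution series were incubated 1 h at room temperature with CDK2/CycA, ULight-MBP substrate and ATP in pH 7.5 HEPES buffer.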

The next test addresses CDK7/CycH/Mat1 (Homo sapiens, UniProt P50613). The test can be described thus: CDK7 Enzymatic Activity Assay (Lance Kinase Activity Assay, FRET). As to conditions: CDK7/CycH/Mat1, 25 μM ATP final; class ranges; read-out: CDK7: IC50 [nM] for CDK7 inhibition. Summed up: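 TR-FRET (LANCE) kinase assay: CDK7/CycH/Mat1 phosphorylates Ulight-MBP substrate for 1 h at room temperature in pH 7.5 HEPES buffer; detection 1 h with Eu-labelled anti-phospho antibody plus EDTA.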

CDK9/Cyclin T1, sequence (P50750 whole entry): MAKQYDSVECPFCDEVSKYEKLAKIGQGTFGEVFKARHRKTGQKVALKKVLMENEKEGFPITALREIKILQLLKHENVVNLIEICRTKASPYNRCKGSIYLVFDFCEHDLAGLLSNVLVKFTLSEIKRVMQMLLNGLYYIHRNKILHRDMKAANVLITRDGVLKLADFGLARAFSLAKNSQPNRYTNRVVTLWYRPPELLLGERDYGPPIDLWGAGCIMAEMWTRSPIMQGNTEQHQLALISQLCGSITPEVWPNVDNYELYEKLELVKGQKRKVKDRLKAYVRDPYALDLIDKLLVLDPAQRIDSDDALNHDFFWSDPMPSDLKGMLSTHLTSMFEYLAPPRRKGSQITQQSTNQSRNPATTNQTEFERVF
CDK9/Cyclin T1, sequence (O60563 whole entry partner): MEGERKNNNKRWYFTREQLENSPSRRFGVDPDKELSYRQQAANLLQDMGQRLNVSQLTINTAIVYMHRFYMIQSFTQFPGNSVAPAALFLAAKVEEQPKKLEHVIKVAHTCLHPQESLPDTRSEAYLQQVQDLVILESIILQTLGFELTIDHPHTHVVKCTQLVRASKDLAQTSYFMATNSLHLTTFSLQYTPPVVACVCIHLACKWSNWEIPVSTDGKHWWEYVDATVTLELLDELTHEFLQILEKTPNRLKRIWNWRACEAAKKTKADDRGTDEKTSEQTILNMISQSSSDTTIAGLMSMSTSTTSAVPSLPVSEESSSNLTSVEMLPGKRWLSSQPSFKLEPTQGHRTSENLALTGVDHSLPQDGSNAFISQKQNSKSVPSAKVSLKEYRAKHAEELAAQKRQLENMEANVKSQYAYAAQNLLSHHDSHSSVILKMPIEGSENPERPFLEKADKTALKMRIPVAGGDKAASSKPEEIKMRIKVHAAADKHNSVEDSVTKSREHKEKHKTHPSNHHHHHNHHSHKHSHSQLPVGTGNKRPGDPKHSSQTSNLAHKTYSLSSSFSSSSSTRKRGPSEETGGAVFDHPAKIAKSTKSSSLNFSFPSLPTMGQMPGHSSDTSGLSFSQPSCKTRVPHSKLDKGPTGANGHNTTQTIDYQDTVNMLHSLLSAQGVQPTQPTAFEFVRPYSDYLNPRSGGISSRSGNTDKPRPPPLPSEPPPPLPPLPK
CDK7/CycH/Mat1, sequence (P50613 whole entry): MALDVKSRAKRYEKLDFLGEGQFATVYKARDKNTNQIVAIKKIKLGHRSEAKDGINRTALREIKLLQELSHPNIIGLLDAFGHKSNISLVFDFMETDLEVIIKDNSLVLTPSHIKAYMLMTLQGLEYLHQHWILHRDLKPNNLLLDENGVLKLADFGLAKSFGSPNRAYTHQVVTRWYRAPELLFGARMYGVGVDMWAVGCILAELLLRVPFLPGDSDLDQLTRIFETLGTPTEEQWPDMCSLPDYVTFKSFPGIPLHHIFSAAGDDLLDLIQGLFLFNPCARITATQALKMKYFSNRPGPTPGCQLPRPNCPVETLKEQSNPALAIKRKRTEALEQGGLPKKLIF

Turning to `CC(C)c1cnn2c(NCc3ccccc3-c3ccccn3)nc(O[C@@H]3CCCNC3)nc12` [(VII-34), (R)-8-isopropyl-2-(piperidin-3-yloxy)-N-(2-(pyridin-2-yl)benzyl)pyrazolo[1,5-a][1,3,5]triazin-4-amine], the IC50 at CDK9/Cyclin T1 was 500 to 2500 nM; at CDK2/CycA, 50 to 500 nM; at CDK7/CycH/Mat1 it was < 5 nM.
With `COC(=O)C(CN)Nc1nc(NCc2ccccc2-n2cccn2)n2ncc(C(C)C)c2n1` (stereo not drawn) [(VIII-055), methyl 2-((4-((2-(1H-pyrazol-1-yl)benzyl)amino)-8-isopropylpyrazolo[1,5-a][1,3,5]triazin-2-yl)amino)-3-aminopropanoate], the IC50 at CDK9/Cyclin T1 was > 2500 nM; on CDK2/CycA, > 2500 nM; at CDK7/CycH/Mat1 it was > 25 nM.
Take `CC(C)c1cnn2c(NCc3ccccc3-c3cccs3)nc(O[C@@H]3CCCNC3)nc12` [(VII-12), (R)-8-isopropyl-2-(piperidin-3-yloxy)-N-(2-(thiophen-2-yl)benzyl)pyrazolo[1,5-a][1,3,5]triazin-4-amine]: the IC50 at CDK9/Cyclin T1 was 50 to 500 nM; on CDK2/CycA, < 50 nM; at CDK7/CycH/Mat1, < 5 nM.
The matching figures for `CC(C)c1cnn2c(NCc3ccccc3-n3cc(Cl)cn3)nc(O[C@@H]3CCCNC3)nc12` [(VII-52), (R)-N-(2-(4-chloro-1H-pyrazol-1-yl)benzyl)-8-isopropyl-2-(piperidin-3-yloxy)pyrazolo[1,5-a][1,3,5]triazin-4-amine]: 50 to 500 nM, 50 to 500 nM and < 5 nM.
The corresponding values for `CNC(=O)c1ccccc1CNc1nc(O[C@@H]2CCCNC2)nc2c(C(C)C)cnn12` [(VII-108), (R)-2-(((8-isopropyl-2-(piperidin-3-yloxy)pyrazolo[1,5-a][1,3,5]triazin-4-yl)amino)methyl)-N-methylbenzamide] are > 2500 nM, 50 to 500 nM and < 5 nM.
Consider `CC(C)c1cnn2c(NCc3ccccc3-n3cccn3)nc(SC3CCNCC3)nc12` [(X-9), N-(2-(1H-pyrazol-1-yl)benzyl)-8-isopropyl-2-(piperidin-4-ylthio)pyrazolo[1,5-a][1,3,5]triazin-4-amine], for which the IC50 at CDK9/Cyclin T1 is > 2500 nM; at CDK2/CycA it was > 2500 nM; on CDK7/CycH/Mat1, 10 to 25 nM.
Turning to `CC(C)c1cnn2c(NCc3cccc4cc[n+]([O-])cc34)nc(O[C@@H]3CCCNC3)nc12` [(VII-32), (R)-8-(((8-isopropyl-2-(piperidin-3-yloxy)pyrazolo[1,5-a][1,3,5]triazin-4-yl)amino)methyl)isoquinoline 2-oxide], the results for the IC50 on CDK9/Cyclin T1, at CDK2/CycA and at CDK7/CycH/Mat1 were 50 to 500 nM, 50 to 500 nM and < 5 nM, respectively.
Take `CC(C)c1cnn2c(NCc3ccccc3-n3cccn3)nc(S[C@@H]3CCCNC3)nc12` [(X-8), (R)-N-(2-(1H-pyrazol-1-yl)benzyl)-8-isopropyl-2-(piperidin-3-ylthio)pyrazolo[1,5-a][1,3,5]triazin-4-amine]: the IC50 at CDK9/Cyclin T1 is > 2500 nM; on CDK2/CycA it was 50 to 500 nM; at CDK7/CycH/Mat1, < 5 nM.
The corresponding values for `CC(C)c1cnn2c(NCc3ccccc3-c3cccs3)nc([S+]([O-])C3CCNCC3)nc12` (stereo not drawn) [(X-2), 8-isopropyl-2-(piperidin-4-ylsulfinyl)-N-(2-(thiophen-2-yl)benzyl)pyrazolo[1,5-a][1,3,5]triazin-4-amine] are 50 to 500 nM, 50 to 500 nM and < 5 nM.
The matching figures for `CC(C)c1cnn2c(NCc3ccccc3-c3ccccc3)nc(O[C@@H]3CCCNC3)nc12` [(VII-07), (R)-N-([1,1′-biphenyl]-2-ylmethyl)-8-isopropyl-2-(piperidin-3-yloxy)pyrazolo[1,5-a][1,3,5]triazin-4-amine]: 50 to 500 nM, 500 to 2500 nM and < 5 nM.
The corresponding values for `COc1ccccc1[C@H](C)Nc1nc(O[C@@H]2CCNC2)nc2c(C(C)C)cnn12` [(VII-11), 8-isopropyl-N-((S)-1-(2-methoxyphenyl)ethyl)-2-((R)-pyrrolidin-3-yloxy)pyrazolo[1,5-a][1,3,5]triazin-4-amine] are 500 to 2500 nM, 500 to 2500 nM and 5 to 10 nM.
Regarding `CC(C)c1cnn2c(NCc3ccccc3-n3cccn3)nc(N3CC4CCNC4C3)nc12` (stereo not drawn) [(VIII-050), N-(2-(1H-pyrazol-1-yl)benzyl)-2-(hexahydropyrrolo[3,4-b]pyrrol-5(1H)-yl)-8-isopropylpyrazolo[1,5-a][1,3,5]triazin-4-amine], the values for the IC50 on CDK9/Cyclin T1, at CDK2/CycA and at CDK7/CycH/Mat1 were > 2500 nM, > 2500 nM and 10 to 25 nM, respectively.
For the compound `CC(C)c1cnn2c(NCc3ccccc3-n3cncn3)nc(N[C@@H]3CCCNC3)nc12` [(VIII-33), (R)-N4-(2-(1H-1,2,4-triazol-1-yl)benzyl)-8-isopropyl-N2-(piperidin-3-yl)pyrazolo[1,5-a][1,3,5]triazine-2,4-diamine], the IC50 on CDK9/Cyclin T1 is 500 to 2500 nM; on CDK2/CycA it was < 50 nM; at CDK7/CycH/Mat1, < 5 nM.
The matching figures for `CC(C)c1cnn2c(NCc3ccccc3CN3CCCC3=O)nc(O[C@@H]3CCCNC3)nc12` [(VII-092), (R)-1-(2-(((8-isopropyl-2-(piperidin-3-yloxy)pyrazolo[1,5-a][1,3,5]triazin-4-yl)amino)methyl)benzyl)pyrrolidin-2-one]: > 2500 nM, > 2500 nM and 10 to 25 nM.
The corresponding values for `CC(C)c1cnn2c(NCc3ccccc3F)nc(OC3CCN(C)CC3)nc12` [(VII-56), N-(2-fluorobenzyl)-8-isopropyl-2-((1-methylpiperidin-4-yl)oxy)pyrazolo[1,5-a][1,3,5]triazin-4-amine] are 50 to 500 nM, 500 to 2500 nM and 5 to 10 nM.
The corresponding values for `CC(C)c1cnn2c(NCc3cccc4c3cnn4C)nc(O[C@@H]3CCCNC3)nc12` [(VII-33), (R)-8-isopropyl-N-((1-methyl-1H-indazol-4-yl)methyl)-2-(piperidin-3-yloxy)pyrazolo[1,5-a][1,3,5]triazin-4-amine] are < 50 nM, < 50 nM and < 5 nM.
For the compound `CC(C)c1cnn2c(NCc3ccccc3C3CCCC3)nc(O[C@@H]3CCCNC3)nc12` [(VII-142), (R)-N-(2-cyclopentylbenzyl)-8-isopropyl-2-(piperidin-3-yloxy)pyrazolo[1,5-a][1,3,5]triazin-4-amine], the values for the IC50 at CDK9/Cyclin T1, at CDK2/CycA and on CDK7/CycH/Mat1 were > 2500 nM, > 2500 nM and > 25 nM, respectively.
Take `CC(C)c1cnn2c(NCc3ccccc3-n3cccn3)nc(OC3CNCCOC3)nc12` (stereo not drawn) [(VII-122), 2-((1,4-oxazepan-6-yl)oxy)-N-(2-(1H-pyrazol-1-yl)benzyl)-8-isopropylpyrazolo[1,5-a][1,3,5]triazin-4-amine]: the values for the IC50 on CDK9/Cyclin T1, at CDK2/CycA and at CDK7/CycH/Mat1 were > 2500 nM, 500 to 2500 nM and 10 to 25 nM, respectively.
Take `Cc1nccn1-c1ccccc1CNc1nc([S+]([O-])C2CCNCC2)nc2c(C(C)C)cnn12` (stereo not drawn) [(X-5), 8-isopropyl-N-(2-(2-methyl-1H-imidazol-1-yl)benzyl)-2-(piperidin-4-ylsulfinyl)pyrazolo[1,5-a][1,3,5]triazin-4-amine]: the IC50 at CDK9/Cyclin T1 was > 2500 nM; at CDK2/CycA, 500 to 2500 nM; at CDK7/CycH/Mat1, < 5 nM.
The corresponding values for `CC(=O)Oc1ccccc1CNc1nc(O[C@@H]2CCCNC2)nc2c(C(C)C)cnn12` [(VII-145), (R)-2-(((8-isopropyl-2-(piperidin-3-yloxy)pyrazolo[1,5-a][1,3,5]triazin-4-yl)amino)methyl)phenyl acetate] are 500 to 2500 nM, 500 to 2500 nM and 10 to 25 nM.
Consider `COCCN1CCN(Cc2nc(NCc3ccccc3-n3cccn3)n3ncc(C(C)C)c3n2)CC1` [(XXX-9), N-(2-(1H-pyrazol-1-yl)benzyl)-8-isopropyl-2-((4-(2-methoxyethyl)piperazin-1-yl)methyl)pyrazolo[1,5-a][1,3,5]triazin-4-amine], for which the results for the IC50 at CDK9/Cyclin T1, at CDK2/CycA and on CDK7/CycH/Mat1 were > 2500 nM, > 2500 nM and > 25 nM, respectively.
For the compound `CC(C)c1cnn2c(NCc3ccccc3SC3CCCC3)nc(O[C@@H]3CCCNC3)nc12` [(VII-119), (R)-N-(2-(cyclopentylthio)benzyl)-8-isopropyl-2-(piperidin-3-yloxy)pyrazolo[1,5-a][1,3,5]triazin-4-amine], the IC50 was > 2500 nM at CDK9/Cyclin T1, 500 to 2500 nM on CDK2/CycA and > 25 nM on CDK7/CycH/Mat1.
The matching figures for `C#CC(C)NC(=O)c1ccccc1CNc1nc(O[C@@H]2CCCNC2)nc2c(C(C)C)cnn12` (stereo partly drawn) [(VII-109), N-(but-3-yn-2-yl)-2-(((8-isopropyl-2-((R)-piperidin-3-yloxy)pyrazolo[1,5-a][1,3,5]triazin-4-yl)amino)methyl)benzamide]: > 2500 nM, > 2500 nM and 10 to 25 nM.
